# Measured values: US12440496B2, “Natriuretic peptide receptor a agonists useful for the treatment of cardiometabolic diseases, kidney disease and diabetes” (Merck Sharp & Dohme LLC, priority 2019, dated 2025)
# Molecular target: T1, hNPRA (Homo sapiens, UniProt P16066)
# T1 construct: expressed in transfected cells
# T1 sequence (P16066 33-1061): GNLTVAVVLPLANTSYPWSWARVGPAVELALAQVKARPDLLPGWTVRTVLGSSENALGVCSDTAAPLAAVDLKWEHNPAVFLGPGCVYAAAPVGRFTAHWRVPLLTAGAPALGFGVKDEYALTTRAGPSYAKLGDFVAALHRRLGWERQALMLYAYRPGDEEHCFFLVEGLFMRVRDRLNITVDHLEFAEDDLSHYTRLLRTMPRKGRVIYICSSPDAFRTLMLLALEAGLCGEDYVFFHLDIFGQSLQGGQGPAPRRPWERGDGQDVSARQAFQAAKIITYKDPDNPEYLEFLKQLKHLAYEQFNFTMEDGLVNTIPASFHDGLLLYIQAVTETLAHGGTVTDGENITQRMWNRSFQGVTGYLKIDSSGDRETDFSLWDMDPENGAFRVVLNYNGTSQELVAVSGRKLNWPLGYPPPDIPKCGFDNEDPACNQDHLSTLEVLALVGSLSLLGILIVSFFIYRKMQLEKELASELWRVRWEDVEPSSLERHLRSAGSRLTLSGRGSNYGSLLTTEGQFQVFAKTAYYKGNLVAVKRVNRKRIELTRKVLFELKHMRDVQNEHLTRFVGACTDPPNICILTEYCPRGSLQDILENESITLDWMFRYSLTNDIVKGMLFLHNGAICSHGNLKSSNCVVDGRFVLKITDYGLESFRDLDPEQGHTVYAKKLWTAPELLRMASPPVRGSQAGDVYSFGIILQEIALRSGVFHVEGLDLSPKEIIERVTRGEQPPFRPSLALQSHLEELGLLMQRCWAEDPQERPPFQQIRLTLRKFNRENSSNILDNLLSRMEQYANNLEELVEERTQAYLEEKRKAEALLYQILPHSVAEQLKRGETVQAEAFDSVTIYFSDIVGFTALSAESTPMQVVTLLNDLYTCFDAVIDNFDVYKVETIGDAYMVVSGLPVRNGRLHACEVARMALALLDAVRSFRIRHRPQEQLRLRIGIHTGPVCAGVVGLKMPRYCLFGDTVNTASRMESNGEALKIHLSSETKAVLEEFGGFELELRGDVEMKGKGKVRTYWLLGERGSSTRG
# Test: NPRA Functional Cell Assay (cGMP HTRF, NPRA HEK JumpIn stable cells)
# Format: cell-based
# Conditions: cGMP production, 1 hour at 37° C., 10-point dose response
# How it was run: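 cGMP HTRF read-out after 1 hour compound treatment at 37° C. of human NPRA-expressing HEK JumpIn cells, 1500 cells/well, in buffer with phosphodiesterase inhibitors IBMX and RO20 (100 uM each). Signal converted to [cGMP] by calibration curve; EC50s fitted by 4-parameter logistic; 50 nM h-ANP as positive response.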
row,SMILES,EC50 [nM]
1,"CC(C)(C)[C@H]1CCc2nc3sc(C(=O)N[C@H](CCN4CCC(O)CC4)c4ccc(-c5cncs5)cc4)nc3cc2C1 (racemic) [Example 185, rac-(7S)-7-tert-butyl-N-[rac-(1R)-3-(4-hydroxypiperidin-1-ium-1-yl)-1-(4-thiazol-5-ylphenyl)propyl]-5,6,7,8-tetrahydrothiazolo[5,4-b]quinoline-2-carboxamide; 2,2,2-trifluoroacetate]",1920
2,"CC(C)(C)[C@H]1CCc2nc3sc(C(=O)N[C@H](CCN4CCC(O)CC4)c4ccc(N5CCOC5=O)nc4)nc3cc2C1 (racemic) [Example 186, rac-(7S)-7-tert-butyl-N-[rac-(1R)-3-(4-hydroxy-1-piperidyl)-1-[6-(2-oxooxazolidin-3-yl)-3-pyridyl]propyl]-5,6,7,8-tetrahydrothiazolo[5,4-b]quinoline-2-carboxamide]",350
3,"Cc1nn(-c2ccc([C@@H](CCN3CCC(O)CC3)NC(=O)c3nc4cc5c(nc4s3)CC[C@H](C(C)(C)C)C5)cn2)c(C)c1O (racemic) [Example 187, ammonium; 3,5-dimethyl-1-[5-[rac-(1R)-3-(4-hydroxy-1-piperidyl)-1-[[rac-(7S)-7-tert-butyl-5,6,7,8-tetrahydrothiazolo[5,4-b]quinoline-2-carbonyl]amino]propyl]-2-pyridyl]pyrazol-4-olate]",641
4,"CC(C)(C)C1CCc2nc3sc(C(=O)NC(CCN4CCC(O)CC4)c4ccc(N5CCC(O)C5=O)nc4)nc3cc2C1 (racemic) [Example 188, rac-(7S)-7-tert-butyl-N-[rac-(1R)-1-[6-(3-hdyroxy-2-oxo-pyrrolidin-1-yl)-3-pyridyl]-3-(4-hydroxy-1-piperidyl)propyl]-5,6,7,8-tetrahydrothiazolo[5,4-b]quinoline-2-carboxamide]",938
5,"CC(C)(C)[C@H]1CCc2nc3sc(C(=O)N[C@H](CCN4CCC(O)CC4)c4ccc(N5CCC(O)CC5)nc4)nc3cc2C1 (racemic) [Example 189, rac-(7S)-7-tert-butyl-N-[rac-(1R)-3-(4-hydroxy-1-piperidyl)-1-[6-(4-hydroxy-1-piperidyl)-3-pyridyl]propyl]-5,6,7,8-tetrahydrothiazolo[5,4-b]quinoline-2-carboxamide]",1380
6,"CC(C)(C)[C@H]1CCc2nc3sc(C(=O)N[C@H](CCN4CCC(O)CC4)c4ccc(N5CCC(O)C5)nc4)nc3cc2C1 (mixture of isomers) [Example 190, rac-(7S)-7-tert-butyl-N-[rac-(1R)-3-(4-hydroxy-1-piperidyl)-1-[6-(3-hydroxypyrrolidin-1-yl)-3-pyridyl]propyl]-5,6,7,8-tetrahydrothiazolo[5,4-b]quinoline-2-carboxamide]",1910
7,"Cc1n[nH]c(C)c1Oc1ccc([C@@H](CCN2CCC(O)CC2)NC(=O)c2nc3cc4c(nc3s2)CC[C@H](C(C)(C)C)C4)cn1 (racemic) [Example 191, rac-(7S)-7-tert-butyl-N-[rac-(1R)-1-[6-[(3,5-dimethyl-1H-pyrazol-4-yl)oxy]-3-pyridyl]-3-(4-hydroxy-1-piperidyl)propyl]-5,6,7,8-tetrahydrothiazolo[5,4-b]quinoline-2-carboxamide]",632
8,"CC(C)(C)[C@H]1CCc2nc3sc(C(=O)N[C@H](CCN4CCC(O)CC4)c4ccc(OCCO)nc4)nc3cc2C1 (racemic) [Example 192, rac-(7S)-7-tert-butyl-N-[rac-(1R)-1-[6-(2-hydroxyethoxy)-3-pyridyl]-3-(4-hydroxy-1-piperidyl)propyl]-5,6,7,8-tetrahydrothiazolo[5,4-b]quinoline-2-carboxamide]",665
9,"CC(C)(C)[C@H]1CCc2nc3sc(C(=O)N[C@H](CCN4CCC(O)CC4)c4ccc(OCC(N)=O)nc4)nc3cc2C1 (racemic) [Example 193, rac-(7S)-7-tert-butyl-N-[rac-(1R)-1-[6-(2-amino-2-oxo-ethoxy)-3-pyridyl]-3-(4-hydroxy-1-piperidyl)propyl]-5,6,7,8-tetrahydrothiazolo[5,4-b]quinoline-2-carboxamide]",787
